Earlier results on 3 compounds are cited in patent publication US20250347706A1, “DISPOSABLE CARTRIDGE FOR CLASSIFICATION OF ANTICOAGULANT AND METHOD OF USE” (Haemonetics Corporation, priority 2023, published 2025).

The conditions of this data set: for half-life compared with dabigatran: in vivo.

Consider `O=C(NC[C@H]1CN(c2ccc(N3CCOCC3=O)cc2)C(=O)O1)c1ccc(Cl)s1` [rivaroxaban], for which the “half-life compared with dabigatran” value was “shorter half-lives than dabigatran”.

On to `COc1ccc(-n2nc(C(N)=O)c3c2C(=O)N(c2ccc(N4CCCCC4=O)cc2)CC3)cc1` [apixaban], for which the “half-life compared with dabigatran” value is given as “shorter half-lives than dabigatran”. Further, the increased half-life result (patients with severe renal impairment compared to healthy volunteers (Dager et al.)) is recorded as “up to 44%”.

As for dabigatran, where the note is “lengthened in patients with renal dysfunction, Pradaxa product information”, the half-life was 12 to 17 h.
